The subject of the assay is blood calcium. The experiment in a line: Blood calcium (calcemia) in rats after administration of calcitonin compositions. It is filed as in vivo, female Wistar rats. Conditions: oral, 72 IU per animal, FIG. 5. The protocol: The study was carried out on female Wistar rats weighing 150 g, divided into groups of 4 rats. Oral administration was effected using an esophageal tube in a volume of 300 μl, corresponding to […] administered per animal.
A volume of 100 μl of an aqueous solution of calcitonin with a titer of 20 IU/ml, corresponding to a dose of 2 IU of calcitonin per animal, was administered subcutaneously to a positive control group.
A volume of 300 μl of an aqueous solution of calcitonin with a titer of 240 IU/ml, corresponding to 72 IU per animal, was administered orally to a negative control group.
The animals were fasted (water diet) 24 hours before the experiment. Blood samples were taken retro-orbitally under general anesthetic at T0 (before administration), T0+1 h, T0+2 h or T0+3 h, T0+5 h. 50 μl of blood are collected in microcapillary tubes containing heparin.
The blood calcium and pH are measured immediately after sample collection, directly in the microcapillary tube, by means of a CIBA-CORNING model 634 automatic analyzer to give the calcemia.

Regarding “calcitonin [non-encapsulated calcitonin solution]”, the decrease of calcemia entry is reported as “not observed”.

The record behind these values is patent US6770292B2, “Pharmaceutical compositions for oral administration” (Capsules, priority 2000, dated 2004).
